Read-outs that look alike come from different tables or passages of the source.

For this assay, the system named is HIV-1IIIB. Put plainly: Anti-HIV cytoprotection assay in CEM-SS cells infected with HIV-1IIIB, XTT viability readout after 6 days. The assay is classed as cell-based. The method, then:
In some aspect, CEM-SS cells were incubated at 37° C./5% CO2 with serially diluted compound and a known titer of HIV-1IIIB for 6 days. The CEM-SS cell line is a derivative of the human T lymphosarcoma cell line CEM that is permissive for vif-deficient HIV-1 replication. Following the incubation, the cells were stained with the tetrazolium dye XTT and read at 460/650 nm on a spectrophotometer to evaluate cellular viability. Efficacy and toxicity values were calculated using linear regression analysis. The efficacy of compound H-a was compared to that of dolutegravir. The EC50 of compound II-a was in a range of 0.070-0.02 nM (e.g. 0.070, 0.075, 0.080, 0.085, 0.090, 0.095, 0.010, 0.015 or 0.02 nM)
CEM-SS cells were incubated at 37° C./5% CO2 with serially diluted compound and a known titer of HIV-1IIIB for 6 days. The CEM-SS cell line is a derivative of the human T lymphosarcoma cell line CEM that is permissive for vif-deficient HIV-1 replication. Following the incubation, the cells were stained with the tetrazolium dye XTT and read at 460/650 nm on a spectrophotometer to evaluate cellular viability. Efficacy and toxicity values were calculated using linear regression analysis.
On the technique in general: Tetrazolium assays rely on reduction of a dye to a coloured formazan, in cell work by metabolically active cells.

As for `C[C@@H]1CCO[C@H]2Cn3cc(C(=O)C(=O)NCc4ccc(F)cc4F)c(O)c3C(=O)N12` [Compound II-a], the response was half-maximal at 0.095 nM (EC50).
For `C[C@@H]1CCO[C@H]2Cn3cc(C(=O)NCc4ccc(F)cc4F)c(=O)c(O)c3C(=O)N12` [Compound I, Dolutegravir], under “Human immunodeficiency virus 1, CEM-SS, 144 h”, it took 0.12 nM to reach a half-maximal effect (EC50).

Values taken from US20210380602A1, “NOVEL PYRROLE AND PYRIDONE DERIVATIVES AND USES THEREOF” (VIRGINIA COMMONWEALTH UNIVERSITY, priority 2018, published 2021).
